# Reference: patent US11643385B2, “Polymorphic forms of RAD1901-2HCl” (RADIUS PHARMACEUTICALS, INC., priority 2018, dated 2023)
# Entries after “also recorded” stand apart in the source; their conditions may differ.
# Key:
# [1] = Gravimetric Vapour Sorption (GVS) with XRPD post-GVS; type: physicochemical; conditions: for Form change at high RH (>90%) in GVS experiments: above 90% RH; for XRPD post GVS (uptake 0-90% RH): after GVS 0-90% RH
# Protocol: Sorption isotherms were obtained using a SMS DVS Intrinsic moisture sorption analyzer, controlled by DVS Intrinsic Control software v1.0.1.2 (or v 1.0.1.3). The sample temperature was maintained at 25° C. by the instrument controls. The humidity was controlled by mixing streams of dry and wet nitrogen, with a total flow rate of 200 ml/min. The relative humidity was measured by a calibrated Rotronic probe (dynamic range of 1.0-100% RH), located near the sample. The weight change, (mass relaxation) of the sample as a function of % RH was constantly monitored by the microbalance (accuracy ±0.005 mg).
# A sample (e.g., 20 mg) was placed in a tared mesh stainless steel basket under ambient conditions. The sample was loaded and unloaded at 40% RH and 25° C. (typical room conditions). A moisture sorption isotherm was performed as outlined below (2 scans giving 1 complete cycle). Standard isotherms were performed at 25° C. at 10% RH intervals over a 0-90% RH range. Data analysis was carried out using Microsoft Excel using DVS Analysis Suite v6.2 (or 6.1 or 6.0).
# In a cycle of 2 scans, the first scan was performed with adsorption of 40-90% RH, followed by a second scan with desorption of 90-0% RH and adsorption of 0-40% RH, with intervals of 10% RH, at 25° C. with stability dm/dt of 0.002% ° C./min. The sorption time was 6 hr time out.
# The sample was recovered after completion of the isotherm and re-analyzed by XRPD. Custom moisture sorption methods were also performed at 25° C. at fixed % RH intervals over a 0-95% RH range, with the purpose to fully understand the sorption/desorption behavior of the compound under elevated conditions.
# To further explore the humidity behavior of Sample 1 (Form 1) upon exposure to high RH (>90%), custom GVS experiments were designed and carried out. Initially, the sample was treated by holding at 90 and then 95% RH for ˜12 hours to see if hydrate formation could be observed (HighRH method of Steps 1 and 2 of Table 2, FIGS. 6C-6D).
# To test the stability of the hydrated state, GVS method HighRH_Desorp_3 was designed with a desorption step and subsequent adsorption (see Table 2 with steps 1-4, FIGS. 6E-6F).
# Finally, to ensure complete conversion to the anhydrous and hydrated forms, a GVS experiment was designed to increase both the length of the desorption step at 0% RH, and the adsorption step at 95% RH, respectively (Table 3). Based on the weight stabilization observed in the kinetic plots for Sample 1 in HighRH and HighRH_Desorp_3 methods discussed above (FIGS. 6D and 6F), a holding time of 800 mins at 0% RH and 1600 mins at 95% RH were chosen. A double cycle was also recorded for this experiment to observe whether the sample would return to Form 1 or form a mixed anhydrous/hydrated species (see Table 3, FIGS. 6G-6H).
# [2] = Storage at elevated temperature/humidity, solid form checked by XRPD; type: physicochemical; conditions: for XRPD after storage at 25° C./97% RH for 1 week (solid form) / XRPD after storage at 40° C./75% RH for 1 week (solid form): 1 week (7 days); for Form change on exposure to high RH (>90%): e.g. 7 days / prolonged exposure
# Protocol: Samples 1 and 2 were characterized by XRPD at various conditions. XRPD patterns were collected for the samples at ambient condition as the samples were provided; at variable temperature (VT-XRPD); at variable humidity (VH-XRPD); after the samples were exposed to 40° C./75% RH for 1 week and 25° C./97% RH for 1 week, respectively; and after a GVS measurement wherein the samples were exposed to 0-90% RH. Samples 1 and 2 were also characterized by ^1H NMR, TGA, DSC, KF, IC, GVS (exposed to 0-90% RH), PLM, SEM, and HPLC (Table 5). […]
# [3] = as above; type: physicochemical
# [4] = biological target: T1, estrogen receptor (ER) (Homo sapiens, UniProt P03372); conditions: cited from earlier work
# T1 sequence (P03372 1-595): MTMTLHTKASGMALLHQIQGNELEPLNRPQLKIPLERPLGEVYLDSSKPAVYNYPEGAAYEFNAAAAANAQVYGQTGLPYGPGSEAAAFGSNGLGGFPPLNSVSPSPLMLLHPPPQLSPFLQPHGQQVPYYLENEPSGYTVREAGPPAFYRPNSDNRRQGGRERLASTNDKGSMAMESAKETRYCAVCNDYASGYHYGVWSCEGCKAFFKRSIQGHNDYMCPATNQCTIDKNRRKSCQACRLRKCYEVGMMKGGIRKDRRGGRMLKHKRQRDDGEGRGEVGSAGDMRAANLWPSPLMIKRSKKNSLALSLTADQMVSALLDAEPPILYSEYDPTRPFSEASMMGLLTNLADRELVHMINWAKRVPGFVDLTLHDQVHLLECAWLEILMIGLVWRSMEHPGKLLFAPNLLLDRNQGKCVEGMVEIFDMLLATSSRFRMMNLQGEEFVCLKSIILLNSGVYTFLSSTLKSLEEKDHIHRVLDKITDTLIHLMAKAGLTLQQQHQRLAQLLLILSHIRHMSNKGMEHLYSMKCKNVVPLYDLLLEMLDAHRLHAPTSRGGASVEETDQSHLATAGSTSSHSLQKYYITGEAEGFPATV
# [5] = Variable humidity XRPD (VH-XRPD); type: physicochemical
# Protocol: Samples run under non-ambient conditions were prepared by gently packing into a cavity, cut into a silicon wafer to obtain a flat surface and mounted onto a humidity stage with an Ansyco controller and humidity sensor positioned directly next to the sample holder. The data were collected at 298.15 K with water temperature of 35.0° C., in an angular range of 3 to 31° 2θ, with a step size of 0.025° 2θ, a collection time of 2.0 sec/step, and a collection time at each % RH was 41 min 28 sec.
# X-Ray Powder Diffraction (XRPD) patterns were collected at variable humidity values from 0 to 95% RH, based upon the humidity behavior of each compound observed during GVS experiments (described herein). For each Variable Humidity X-Ray Powder Diffraction (VH-XRPD) experiment performed, the % RH values selected are provided alongside the relevant experimental result. Full tables of detailing the % RH value at each collection point and the associated delay time at each value are provided in Tables 10-12.
# To fully characterize the polymorphic behavior of Samples 1 and 2 at variable humidity, and to collect reference XRPD patterns for the ‘pure’ anhydrous Form 1 and Form 2 material, and ‘pure’ hydrated Form 3 material, Variable Humidity (VH) XRPD experiments were conducted on Samples 1 and 2. Initially, VH-XRPD experiments were conducted using Sample 1, and XRPD diffractograms were collected at selected humidity values, in line with those collected during GVS experiments (see FIGS. 6E-6F). XRPD diffractograms were collected initially at ambient RH, then collected over 24 hours at ˜95% RH and finally collected during desorption steps to 0% RH and over 10 hours at 0% RH (see FIG. 4C).
# [6] = Solubility assessment and polymorph screen on Sample 1 (Form 1) of RAD1901-2HCl in 24 solvent systems; type: physicochemical
# Protocol: Solubility assessment was carried out on the Sample 1 of RAD1901-2HCl (majorly Form 1 shown by XRPD) in 24 solvent systems in HPLC vials (sample IDs: A1 to A24). RAD1901-2HCl (25 mg) was treated with increasing volumes of solvent until the material fully dissolved or until a maximum of 60 vol had been used (Table 13).
# After each addition of solvent, the system was stirred for 5 to 10 minutes at 25° C., then shaken at 50° C. for 5 to 10 minutes, and observations made. Samples were allowed to stand at room temperature for 5 min before the addition of a new aliquot of solvent. After the assessment was completed, the suspensions obtained were matured (maturation) and the clear solutions were cooled (cooling) and slowly evaporated (evaporation) as described below. All solids recovered from maturation, cooling and evaporation experiments were analyzed by high resolution XRPD.
# The suspensions obtained during the solubility assessment were matured by shaken in a maturation chamber between 50° C. and RT (8 hr per cycle) for up to 5 days. Then the mixture was allowed to stand at room temperature for 10 minutes. The resulting solids were filtered and air dried and analyzed by XRPD. The clear solutions obtained during maturation were evaporated in ambient conditions and the resulting residues were analyzed by XRPD.
# The clear solutions obtained during the course of the solubility assessment were cooled on a Polar Bear device from 50° C. to 5° C. at 0.1° C./min. Solids obtained upon cooling were recovered from the vials, air dried and analyzed by XRPD. If no solid was obtained, the solutions were evaporated slowly through a needle inserted into the septum cap of the vial until a solid appeared at ambient conditions and the resulting solids were filtered, air dried and analyzed by XRPD.
# [7] = Variable temperature XRPD (VT-XRPD); type: physicochemical
# Protocol: Samples run under non-ambient conditions were mounted on a silicon wafer with a heat-conducting compound. The sample was then heated from ambient to the appropriate temperature at 20° C./min and subsequently held isothermally for 1 minute before data collection was initiated.
# Variable Temperature XRPD (VT-XRPD) experiments were therefore conducted to examine the thermal behavior of Sample 2 observed by DSC (see FIG. 9B). […] (blue) as Form 1 material (FIG. 5D).
smiles,measurement,setting,value
CCNCCc1ccc(CN(CC)c2cc(OC)ccc2[C@@H]2CCc3cc(O)ccc3C2)cc1.Cl.Cl [Form 1],GVS: reversibility of uptake and loss,[1]; 0-90% RH,"exhibits reversible uptake and loss,"
same,"Hygroscopicity (GVS), in words",[1]; 0-90% RH,"lower hygroscopicity; also recorded: relatively non-hygroscopic; also recorded: low hygroscopicity; also recorded: Sample is slightly hygroscopic, but"
same,GVS total mass change between 0 and 90% RH,[1]; 0-90% RH (Table 17),Total mass change of 1.7% wt.
same,Form change at high RH (>90%) in GVS experiments,[1],started converting to the hydrate Form 3
same,XRPD post GVS (uptake 0-90% RH),[1]; 25° C.,unchanged XRPD pattern; also recorded: No changes; also recorded: Form 1
same,XRPD after storage at 25° C./97% RH for 1 week (solid form),[2],converted to Form 3; also recorded: conversion towards a hydrated state Form 3; also recorded: Converts to Form 3 at 25° C./
same,XRPD after storage at 40° C./75% RH for 1 week (solid form),[2],stable; also recorded: Remains as Form 1 at 40° C./
same,Form change on exposure to high RH (>90%),[2],irreversibly converted to the hydrate Form 3
same,"Stability of the form (heat/humidity), in words",[2]; summary of characterizations of Samples 1 and 2,stable
CCNCCc1ccc(CN(CC)c2cc(OC)ccc2[C@@H]2CCc3cc(O)ccc3C2)cc1.Cl.Cl [Form 2],"Hygroscopicity (GVS), in words",[1]; 0-90% RH,hygroscopic
same,Form obtained on exposure to >40% RH for 7 days,"[2]; >40% RH, 7 days",Form 3
CCNCCc1ccc(CN(CC)c2cc(OC)ccc2[C@@H]2CCc3cc(O)ccc3C2)cc1.Cl.Cl [Lyophilization in water],XRPD post storage at 25° C./97% RH (10 days),[3]; 25° C./97% RH,Consistent with Form 3
same,XRPD post storage at 40° C./75% RH (10 days),[3]; 40° C./75% RH,Consistent with Form 3
CCNCCc1ccc(CN(CC)c2cc(OC)ccc2[C@@H]2CCc3cc(O)ccc3C2)cc1 [RAD1901],"Binding selectivity for the estrogen receptor (ER), in words",[4],good selectivity
CCNCCc1ccc(CN(CC)c2cc(OC)ccc2[C@@H]2CCc3cc(O)ccc3C2)cc1.Cl.Cl [Sample 1],VH-XRPD: form change over 24 hr at ~95% RH,"[5]; ~95% RH, 24 hr",unable to show a direct conversion; also recorded: Form 3 over
same,"Solubility in alcohols, esters, and hydrocarbon solvents, in words","[6]; alcohols, esters, hydrocarbon solvents",low solubility
same,"Solubility in water, in words",[6]; water,highly soluble
same,"Solubility in water and t-butanol/water (1:1), in words","[6]; water, t-butanol/water (1:1)",high solubility
same,GVS: reversibility of uptake and loss,[1]; 0-90% RH,(reversible)
same,GVS uptake 0-90% RH,"[1]; 0-90% RH, 25° C.",1.8% wt.
same,GVS mass uptake when held at 95% RH for ~12 hours (HighRH method),"[1]; 95% RH, ~12 hours",5-6 % wt.
same,Form change at high RH (>90%) in GVS experiments,[1],irreversibly converted to a hydrate (Form 3)
same,XRPD post GVS (uptake 0-90% RH),[1]; 25° C.,Form 1
same,XRPD post-GVS (HighRH_DoubleCycle_2 method),"[1]; double cycle, 1600 mins at 95% RH, 800 mins at 0% RH",Form 3
same,XRPD post-GVS (HighRH method),[1]; held at 90 then 95% RH for ~12 hours,mixture of states or incomplete conversion
same,XRPD post-GVS (HighRH_Desorp_3 method),"[1]; single cycle to 95% RH, desorption to 0% RH, adsorption to 40% RH",mixture of Form 1 and Form 3
same,XRPD after storage at 25° C./97% RH for 1 week (solid form),[2],Form 3
same,XRPD after storage at 40° C./75% RH for 1 week (solid form),[2],Form 1
same,Form change on exposure to high RH (>90%),[2],converted to the hydrate Form 3
CCNCCc1ccc(CN(CC)c2cc(OC)ccc2[C@@H]2CCc3cc(O)ccc3C2)cc1.Cl.Cl [Sample 2],VH-XRPD: form at 0% RH,[5]; 0% RH,5E). Form 2 at 0%
same,VH-XRPD: form change at >90% RH,[5]; >90% RH (92-93% RH),conversion toward the hydrated state; also recorded: Conversion to Form 3
same,"Hygroscopicity (GVS), in words",[1]; 0-90% RH,hygroscopic
same,XRPD post GVS (uptake 0-90% RH),[1]; 25° C.,mixture of Form 2 and Form 3
same,XRPD after storage at 25° C./97% RH for 1 week (solid form),[2],Form 3
same,XRPD after storage at 40° C./75% RH for 1 week (solid form),[2],Form 3
same,VT-XRPD: form after melt and recrystallization above 175° C.,[7]; heated above 175° C.,converted to Form 1; also recorded: recrystallized as Form 1
same,VT-XRPD: form obtained on heating to 100° C.,[7]; heating to 100° C.,converted to Form 2; also recorded: Anhydrous Form 2
